What was measured:
[1] = system: Tinea Pedis (Athlete's feet); assay: Soak and topical use in a patient with Tinea Pedis; assay type: in vivo, human; conditions: 0.05% peptide formulation for 5 years
Excerpt: The cream formulation is composed of the excipients cetyl alcohol, isopropyl myristate, stearyl alcohol, butylated hydrosyxtoluene, polyoxyethylene stearyl ether, polyoxyethylene stearyl ether, edetate disodium, and purified water.

[2] = system: acne; assay: Topical use in a patient with acne; assay type: in vivo, human; conditions: continued use of the formulation for two years
Excerpt: A person with a two-year history of acne uses topical 5% peptide (SEQ ID NO:5) formulation twice a day for 4 weeks. The cream formulation is composed of the excipients cetyl alcohol, isopropyl myristate, stearyl alcohol, butylated hydroxytolune, polyoxyethylene stearyl ether, polyoxyethylene stearyl ether, edetate disodium, and purified water.

Question: For `N=C(N)NCCC[C@H](NC(=O)[C@H](CCCNC(=N)N)NC(=O)[C@H](CCCNC(=N)N)NC(=O)[C@H](CCC(N)=O)NC(=O)[C@H](CCCNC(=N)N)NC(=O)[C@H](CCCNC(=N)N)NC(=O)[C@H](CCCCN)NC(=O)[C@H](CCCCN)NC(=O)[C@H](CCCNC(=N)N)NC(=O)CNC(=O)[C@H](CCCCN)NC(=O)[C@H](CCCCN)NC(=O)[C@H](CCCCN)NC(=O)[C@H](CCCCN)NC(=O)[C@H](CCCCN)NC(=O)[C@H](CCCCN)NC(=O)[C@H](CCCCN)NC(=O)[C@H](CCCCN)NC(=O)[C@H](CCCCN)NC(=O)[C@H](CCCCN)NC(=O)[C@H](CCCCN)NC(=O)[C@H](CCCCN)NC(=O)[C@H](CCCCN)NC(=O)[C@H](CCCCN)NC(=O)[C@H](CCCCN)NC(=O)CNC(=O)[C@H](CCCNC(=N)N)NC(=O)[C@H](CCCNC(=N)N)NC(=O)[C@H](CCCNC(=N)N)NC(=O)[C@H](CCC(N)=O)NC(=O)[C@H](CCCNC(=N)N)NC(=O)[C@H](CCCNC(=N)N)NC(=O)[C@H](CCCCN)NC(=O)[C@H](CCCCN)NC(=O)[C@@H](N)CCCNC(=N)N)C(=O)O` [SEQ ID NO:5, Arg-Lys-Lys-Arg-Arg-Gln-Arg-Arg-Arg-Gly-(Lys)15-Gly-Arg-Lys-Lys-Arg-Arg-Gln-Arg-Arg-Arg], which “adverse event on continued use” value [1] is on record?
Answer: The value was “no further breakout or adverse event”.

Question: And the “adverse events on continued use” value [2]?
Answer: The value was “no new breakouts or adverse events are observed”.
